The record followed here is patent publication US9150526B2, “Biaryl-propionic acid derivatives and their use as pharmaceuticals” (SANOFI, priority 2013, dated 2015).

pIC50: −log10 of the molar value.

This assay deals with Recombinant human cathepsin A. Kind of assay: Cathepsin A inhibitory activity (Bodipy FL-bradykinin substrate, microfluidic capillary electrophoresis). The format is biochemical. To be noted: read-out: CATH A IC50.

Turning to `COc1ccc(F)cc1-c1cncc(C(CC(=O)O)c2nnc(C)o2)c1` (centres unmarked) [compound 192], the pIC50 is 5.15. In the case of `CCOc1ccccc1-c1cncc(C(CC(=O)O)c2nnc(C)o2)c1` (centres unmarked) [compound 193] it was 5.37. In the case of `COc1ccc(-c2cncc(C(CC(=O)O)c3nnc(C)o3)c2)c(OC)c1` (centres unmarked) [compound 194] it was 5.15. In the case of `COc1cccc(F)c1-c1cncc(C(CC(=O)O)c2nnc(C)o2)c1` (centres unmarked) [compound 195] it was 5.41.

Regarding `COc1ccc(OC(F)(F)F)cc1-c1cncc(C(CC(=O)O)c2nnc(C)o2)c1` (centres unmarked) [compound 197], the pIC50 was 5.32. In the case of `COc1cccc(Cl)c1-c1cncc(C(CC(=O)O)c2nnc(C)o2)c1` (centres unmarked) [compound 199] it was 5.45; in that of `COc1cc(F)ccc1-c1cc(C(CC(=O)O)c2nnc(C)o2)cc(C(F)(F)F)c1` (centres unmarked) [compound 200], 7.46. To `COc1ccc(OC)c(-c2cc(C(CC(=O)O)c3nnc(C)o3)cc(C(F)(F)F)c2)c1` (centres unmarked) [compound 201] belongs 7.85. To `COc1ccc(C)cc1-c1cc(C(CC(=O)O)c2nnc(C)o2)cc(C(F)(F)F)c1` (centres unmarked) [compound 202] belongs 7.77; to `COc1ccc(C(C)(C)C)cc1-c1cc(C(CC(=O)O)c2nnc(C)o2)cc(C(F)(F)F)c1` (centres unmarked) [compound 203], 7.77; to `COc1ccc(C(C)C)cc1-c1cc(C(CC(=O)O)c2nnc(C)o2)cc(C(F)(F)F)c1` (centres unmarked) [compound 204], 7.51.

For the molecule `COc1cccc(OC)c1-c1cc(C(CC(=O)O)c2nnc(C)o2)cc(C(F)(F)F)c1` (centres unmarked) [compound 205], the pIC50 was 8.70. Consider `COc1cc(C)cc(OC)c1-c1cc(C(CC(=O)O)c2nnc(C)o2)cc(C(F)(F)F)c1` (centres unmarked) [compound 206], for which the negative-log IC50 (pIC50) was 8.22. Consider `COc1ccc2c(c1-c1cc(C(CC(=O)O)c3nnc(C)o3)cc(C(F)(F)F)c1)OC(C)(C)C2` (centres unmarked) [compound 207], for which the pIC50 was 8.00.

For the molecule `Cc1nnc(C(CC(=O)O)c2cc(-c3ccccc3OC(F)(F)F)cc(C(F)(F)F)c2)o1` (centres unmarked) [compound 208], the negative-log IC50 (pIC50) was 7.19. In the case of `COc1ccc(Cl)cc1-c1cc(C(CC(=O)O)c2nnc(C)o2)cc(C(F)(F)F)c1` (centres unmarked) [compound 209], the pIC50 was 7.77.

With `CCOc1ccccc1-c1cc(C(CC(=O)O)c2nnc(C)o2)cc(C(F)(F)F)c1` (centres unmarked) [compound 210], the pIC50 was 7.85. To `COc1ccc(-c2cc(C(CC(=O)O)c3nnc(C)o3)cc(C(F)(F)F)c2)c(OC)c1` (centres unmarked) [compound 211] belongs 7.64; to `COc1cccc(F)c1-c1cc(C(CC(=O)O)c2nnc(C)o2)cc(C(F)(F)F)c1` (centres unmarked) [compound 212], 8.10.

Turning to `COc1ccc(OC(F)(F)F)cc1-c1cc(C(CC(=O)O)c2nnc(C)o2)cc(C(F)(F)F)c1` (centres unmarked) [compound 213], the pIC50 was 7.29. In the case of `COc1cccc(Cl)c1-c1cc(C(CC(=O)O)c2nnc(C)o2)cc(C(F)(F)F)c1` (centres unmarked) [compound 214] it was 7.77; in that of `COc1ccc(S(C)(=O)=O)cc1-c1cc(C(CC(=O)O)c2nnc(C)o2)cc(C(F)(F)F)c1` (centres unmarked) [compound 215], 6.89. Regarding `COc1cccc(C(=O)N2CCCC2)c1-c1cc(C(CC(=O)O)c2nnc(C)o2)cc(C(F)(F)F)c1` (centres unmarked) [compound 216], the pIC50 was 5.84. Take `COc1ccccc1-c1cc(C(CC(=O)O)c2nnc(C)o2)cc(C(F)(F)F)c1` (centres unmarked) [compound 217]: the pIC50 was 7.89.

Regarding `COc1ccc(F)cc1-c1cc(C(CC(=O)O)c2nnc(C)o2)cc(C(F)(F)F)c1` (centres unmarked) [compound 218], the pIC50 was 7.92. To `COc1cccc(CO)c1-c1cc(C(CC(=O)O)c2nnc(C)o2)cc(C(F)(F)F)c1` (centres unmarked) [compound 219] belongs 7.14; to `COc1c(C)cccc1-c1cc(C(CC(=O)O)c2nnc(C)o2)cc(C(F)(F)F)c1` (centres unmarked) [compound 220], 7.28; to `COc1ccc(CO)cc1-c1cc(C(CC(=O)O)c2nnc(C)o2)cc(C(F)(F)F)c1` (centres unmarked) [compound 221], 7.66.

For the molecule `COc1ccc(C(C)(C)C#N)cc1-c1cc(F)cc(C(CC(=O)O)c2nnc(C)o2)c1` (centres unmarked) [compound 222], the pIC50 is 8.40.
